In ChEMBL document CHEMBL1141099, “Discovery of N-(2,6-dimethylphenyl)-substituted semicarbazones as anticonvulsants: hybrid pharmacophore-based design” (2005):

Columns and labels:
[1] = biological target: 4-aminobutyrate aminotransferase, mitochondrial (Rattus norvegicus) (UniProt P50554); test: In vitro percentage inhibition activity against GABA-T enzyme at a concentration of 2.5 uM after 6 h
[2] = biological target: 4-aminobutyrate aminotransferase, mitochondrial (Rattus norvegicus) (UniProt P50554); test: In vitro percentage inhibition activity against GABA-T enzyme at a concentration of 2.5 uM after 4.5 h
[3] = tested on: Rattus norvegicus; test: Number of rats protected at a dose of 30 mg/Kg when given oral at 1 hr upon maximal electroshock seizure; Total number of rats = 4; type: functional
[4] = tested on: Rattus norvegicus; test: Number of rats protected at a dose of 30 mg/Kg when given oral at 2 hr upon maximal electroshock seizure; Total number of rats = 4; type: functional
[5] = tested on: Rattus norvegicus; test: Number of rats protected at a dose of 30 mg/Kg when given oral at 4 hr upon maximal electroshock seizure; Total number of rats = 4; type: functional
[6] = tested on: Rattus norvegicus; test: Number of rats protected at a dose of 30 mg/Kg when given oral at 0.5 hr upon maximal electroshock seizure; Total number of rats = 4; type: functional
[7] = tested on: Rattus norvegicus; test: Number of rats protected at a dose of 30 mg/Kg when given oral at 0.25 hr upon maximal electroshock seizure; Total number of rats = 4; type: functional
[8] = tested on: Rattus norvegicus; test: Effect on GABA level in rat whole brain concentration after 2 hr post-treatment at a dose of 100 mg/Kg when given i.p.; Control 48.4; type: functional
[9] = biological target: 4-aminobutyrate aminotransferase, mitochondrial (Rattus norvegicus) (UniProt P50554); test: In vitro percentage inhibition activity against GABA-T enzyme at a concentration of 2.5 uM after 3 h
[10] = tested on: Rattus norvegicus; test: Effect on GABA level in rat whole brain concentration after 7 days post-treatment at a dose of 30 mg/Kg when given orally; Control 50.5; type: functional
[11] = tested on: Rattus norvegicus; test: Toxic dose observed for anticonvulsant activity when given i.p., at 0.25 hr in rat upon neurotoxicity seizure; type: functional; conditions: ip
[12] = species: Rattus norvegicus; test: Ex vitro percentage inhibition activity against GABA-T enzyme at a concentration of 1.25 uM after 4.5 h; type: functional
[13] = species: Rattus norvegicus; test: Protective index between effective dose and toxic dose in rat; type: functional
[14] = tested on: Mus musculus; test: Minimum dose required for anticonvulsant activity when given i.p., at 4 hr in mice upon maximal electroshock seizure; type: functional
[15] = tested on: Mus musculus; test: Minimum dose required for anticonvulsant activity when given i.p., at 0.5 hr in mice upon maximal electroshock seizure; type: functional
[16] = tested on: Rattus norvegicus; test: Effective dose required for anticonvulsant activity when given i.p., at 0.25 hr in rat upon maximal electroshock seizure; type: functional; conditions: ip
[17] = species: Rattus norvegicus; test: Ex vitro percentage inhibition activity against GABA-T enzyme at a concentration of 1.25 uM after 3 h; type: functional
[18] = species: Rattus norvegicus; test: Ex vitro percentage inhibition activity against GABA-T enzyme at a concentration of 1.25 uM after 6 h; type: functional
[19] = tested on: Mus musculus; test: Minimum dose required for anticonvulsant activity when given i.p., at 0.5 hr in mice upon subcutaneous pentylenetetrazole seizure; type: functional
[20] = tested on: Mus musculus; test: Minimum dose required for anticonvulsant activity when given i.p., at 2 hr in mice upon subcutaneous strychnine seizure; type: functional
[21] = tested on: Mus musculus; test: Minimum dose required for anticonvulsant activity when given i.p., at 0.5 hr in mice upon subcutaneous strychnine seizure; type: functional
[22] = tested on: Mus musculus; test: Mean sleeping time evaluated for CNS study using the pentobarbital-induced narcosis model at a dose of 100 mg/Kg when given i.p., in mice (No. of animals 6)
[23] = tested on: Mus musculus; test: Post treatment activity score for CNS study using a actophotometer at a dose of 100 mg/Kg after 1 hr when given i.p., in mice (No. of animals 6); Control (24h before) 260
[24] = tested on: Mus musculus; test: Post treatment activity score for CNS study using a actophotometer at a dose of 100 mg/Kg after 0.5 hr when given i.p., in mice (No. of animals 6); Control (24h before) 260
[25] = tested on: Mus musculus; test: Post treatment immobility time for CNS study using Porsolt's swimpool test at a dose of 100 mg/Kg after 1 h when given i.p., in mice (No. of animals 6); Control (24h before) 164
[26] = tested on: Rattus norvegicus; test: Enzymatic activity to assess the increase in level of SGOT at a dose of 30 mg/Kg for 14 days when given p.o., in 6 rats; Control 73.1; type: functional
[27] = tested on: Rattus norvegicus; test: Enzymatic activity to assess the increase in level of SGPT at a dose of 30 mg/Kg for 14 days when given p.o., in 6 rats; Control 45.0; type: functional
[28] = tested on: Rattus norvegicus; test: Toxic dose observed for anticonvulsant activity when given orally at 4 h in rat upon neurotoxicity seizure; type: functional; conditions: po
[29] = tested on: Rattus norvegicus; test: Effective dose required for anticonvulsant activity when given orally at 4 h in rat upon maximal electroshock seizure; type: functional; conditions: po
[30] = tested on: Mus musculus; test: Post treatment activity score for CNS study using a actophotometer at a dose of 100 mg/Kg after 1 hr when given i.p., in mice (No. of animals 6); Control (24h before) 224
[31] = tested on: Mus musculus; test: Post treatment activity score for CNS study using a actophotometer at a dose of 100 mg/Kg after 0.5 hr when given i.p., in mice (No. of animals 6); Control (24h before) 224
[32] = tested on: Mus musculus; test: Post treatment immobility time for CNS study using Porsolt's swimpool test at a dose of 100 mg/Kg after 1 hr when given i.p., in mice (No. of animals 6); Control (24h before) 176
[33] = biological target: 4-aminobutyrate aminotransferase, mitochondrial (Rattus norvegicus) (UniProt P50554); test: In vitro percentage inhibition activity against GABA-T enzyme at a concentration of 1.25 uM after 3 h
[34] = biological target: 4-aminobutyrate aminotransferase, mitochondrial (Rattus norvegicus) (UniProt P50554); test: In vitro percentage inhibition activity against GABA-T enzyme at a concentration of 1.25 uM after 6 h
[35] = biological target: 4-aminobutyrate aminotransferase, mitochondrial (Rattus norvegicus) (UniProt P50554); test: In vitro percentage inhibition activity against GABA-T enzyme at a concentration of 1.25 uM after 4.5 h
[36] = tested on: Rattus norvegicus; test: After discharge duration time when before administered in rat 1 at dose 130 mg/Kg when given i.p., upon preliminary hippocampal-kindling screen; Prodrug time 26-39 s; type: functional, Hippocampus
[37] = species: Rattus norvegicus; test: Ex vitro percentage inhibition activity against GABA-T enzyme at a concentration of 2.5 uM after 4.5 h; type: functional
[38] = tested on: Rattus norvegicus; test: After discharge duration time when after administered in rat 1 at dose 130 mg/Kg when given i.p., upon preliminary hippocampal-kindling screen; type: functional, Hippocampus
[39] = tested on: Rattus norvegicus; test: After discharge duration time when after administered in rat 2 at dose 130 mg/Kg when given i.p., upon preliminary hippocampal-kindling screen; type: functional, Hippocampus
[40] = tested on: Rattus norvegicus; test: After discharge duration time when before administered in rat 2 at dose 130 mg/Kg when given i.p., upon preliminary hippocampal-kindling screen; Prodrug time 30-39 s; type: functional, Hippocampus
[41] = tested on: Rattus norvegicus; test: Seizure score after administration in rat 1 at dose 130 mg/Kg when given i.p., upon preliminary hippocampal-kindling screen; type: functional, Hippocampus
[42] = tested on: Rattus norvegicus; test: Seizure score after administration in rat 2 at dose 130 mg/Kg when given i.p., upon preliminary hippocampal-kindling screen; type: functional, Hippocampus
[43] = tested on: Rattus norvegicus; test: Seizure score before administration in rat 1 at dose 130 mg/Kg when given i.p., upon preliminary hippocampal-kindling screen; type: functional, Hippocampus
[44] = tested on: Rattus norvegicus; test: Seizure score before administration in rat 2 at dose 130 mg/Kg when given i.p., upon preliminary hippocampal-kindling screen; type: functional, Hippocampus
[45] = species: Rattus norvegicus; test: Ex vitro percentage inhibition activity against GABA-T enzyme at a concentration of 2.5 uM after 3 h; type: functional
[46] = species: Rattus norvegicus; test: Ex vitro percentage inhibition activity against GABA-T enzyme at a concentration of 2.5 uM after 6 h; type: functional
[47] = tested on: Mus musculus; test: Post treatment activity score for CNS study using a actophotometer at a dose of 100 mg/Kg after 1 hr when given i.p., in mice (No. of animals 6); Control (24h before) 217
[48] = tested on: Mus musculus; test: Post treatment activity score for CNS study using a actophotometer at a dose of 100 mg/Kg after 0.5 hr when given i.p., in mice (No. of animals 6); Control (24h before) 217
[49] = tested on: Mus musculus; test: Post treatment immobility time for CNS study using Porsolt's swimpool test at a dose of 100 mg/Kg after 1 h when given i.p., in mice (No. of animals 6); Control (24h before) 190

4-aminobutyrate aminotransferase, mitochondrial (Rattus norvegicus), sequence (P50554 28-500 limits assumed): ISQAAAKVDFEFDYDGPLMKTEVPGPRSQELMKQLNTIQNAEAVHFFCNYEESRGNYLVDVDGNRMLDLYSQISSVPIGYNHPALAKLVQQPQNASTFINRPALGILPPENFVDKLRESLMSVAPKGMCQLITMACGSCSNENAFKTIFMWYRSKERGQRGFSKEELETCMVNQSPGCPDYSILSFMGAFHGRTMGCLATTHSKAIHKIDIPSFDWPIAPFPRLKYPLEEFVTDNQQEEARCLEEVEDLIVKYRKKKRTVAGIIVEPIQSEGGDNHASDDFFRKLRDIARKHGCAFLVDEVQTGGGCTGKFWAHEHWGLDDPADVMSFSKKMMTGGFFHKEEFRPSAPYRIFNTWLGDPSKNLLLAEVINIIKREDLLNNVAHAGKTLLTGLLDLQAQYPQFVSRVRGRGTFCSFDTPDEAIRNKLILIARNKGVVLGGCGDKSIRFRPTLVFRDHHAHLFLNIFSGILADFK

C/C(=N\NC(=O)Nc1c(C)cccc1C)c1ccc(O)cc1
inhibition [1]: 55% | inhibition [2]: 0% | Activity [3]: 4 | Activity [4]: 3 | Activity [5]: 4 | Activity [6]: 2 | Activity [7]: 1 | Activity [8]: 81.1 ug/100mg of tissue | inhibition [9]: 0% | Activity [10]: 93.6 ug/100mg of tissue | TD50 [11]: > 68 mg/kg | Inhibition [12]: 25% | PI [13]: >1.6 | MES [14]: 300 mg/kg | MES [15]: 100 mg/kg | ED50 [16]: 41.6 mg/kg | Inhibition [17]: 0% | Inhibition [18]: 60% | PTZ seizure [19]: 300 mg/kg | STY seizure [20]: 100 mg/kg | STY seizure [21]: 30 mg/kg | Time [22]: 108 min | Activity [23]: 198 | Activity [24]: 205 | Activity [25]: 198

CC/C(C)=N\NC(=O)Nc1c(C)cccc1C
Activity [3]: 4 | Activity [4]: 3 | Activity [5]: 3 | Activity [6]: 4 | Activity [7]: 1 | SGOT activity [26]: 79.6 units/mL | SGPT activity [27]: 49.3 units/mL | TD50 [28]: > 500 mg/kg | PI [13]: >17.2 | MES [14]: 300 mg/kg | MES [15]: 100 mg/kg | ED50 [29]: 29 mg/kg | PTZ seizure [19]: 300 mg/kg | STY seizure [20]: 100 mg/kg | STY seizure [21]: 30 mg/kg | Time [22]: 61 min | Activity [30]: 195 | Activity [31]: 188 | Activity [32]: 199

Cc1cccc(C)c1NC(=O)N/N=C/c1ccccc1O
inhibition [33]: 58% | inhibition [34]: 9% | inhibition [35]: 0% | Activity [3]: 3 | Activity [4]: 4 | Activity [5]: 4 | Activity [6]: 3 | Activity [7]: 1 | Activity [8]: 92.1 ug/100mg of tissue | Activity [10]: 110 ug/100mg of tissue | SGOT activity [26]: 64.8 units/mL | SGPT activity [27]: 43.3 units/mL | ADD [36]: 39 s | TD50 [28]: > 500 mg/kg | Inhibition [37]: 43% | PI [13]: >25.1 | ADD [38]: 59 s | ADD [39]: 25 s | ADD [40]: 39 s | MES [14]: 300 mg/kg | MES [15]: 100 mg/kg | Score [41]: 1 | Score [42]: 1 | Score [43]: 5 | Score [44]: 5 | ED50 [29]: 19.8 mg/kg | Inhibition [45]: 90% | Inhibition [46]: 0% | PTZ seizure [19]: 300 mg/kg | STY seizure [20]: 100 mg/kg | STY seizure [21]: 30 mg/kg | Activity [47]: 135 | Activity [48]: 155 | Activity [49]: 191
